The subject of series [1] is VZV. The arrangement: method as in ref 35, 38 (a number printed in a supplementary file, which may have a reference list of its own: not looked up in the article's list). The following applies: Table S1; read-out: antiviral EC50, VZV; cited from earlier work.
For series [2], the system named is HHV-6A. The arrangement: method as in ref 35 (a number printed in a supplementary file, which may have a reference list of its own: not looked up in the article's list). The following applies: Table S1; J-Jhan cells; read-out: antiviral EC50, HHV-6A (J-Jhan); cited from earlier work.
For series [3], the system named is Vero cells.
The test system of series [4] is HCMV Merlin-GFP. In words: HCMV time-of-addition reporter assay in HFFs, Merlin-GFP. In general terms: In a reporter assay the amount or activity of a reporter protein is the signal.
For series [5], the system named is GPCMV. Set-up: method as in ref 35, 38 (a number printed in a supplementary file, which may have a reference list of its own: not looked up in the article's list). The following applies: Table S1; read-out: antiviral EC50, GPCMV; cited from earlier work.
Series [6] relates to HAdV. Set-up: method as in ref 35, 38 (a number printed in a supplementary file, which may have a reference list of its own: not looked up in the article's list). As to conditions: Table S1; read-out: antiviral EC50, HAdV; cited from earlier work.
Series [7] concerns JCPyV. Set-up: method as in ref 35, 38 (a number printed in a supplementary file, which may have a reference list of its own: not looked up in the article's list). As to conditions: Table S1; read-out: antiviral EC50, JCPyV; cited from earlier work.
The test system of series [8] is P3HR-1 cells.
The subject of series [9] is vaccinia virus VV IHD-5. The experiment in a line: microbe, parasite or virus in culture. It is filed as cell-based. The following applies: read-out: antiviral EC50, VV.
Series [10] deals with KSHV. The arrangement: method as in ref 35, 38 (a number printed in a supplementary file, which may have a reference list of its own: not looked up in the article's list). The following applies: Table S1; read-out: antiviral EC50, KSHV; cited from earlier work.
The subject of series [11] is EHV-1. The experiment in a line: EHV-1-specific qPCR of virus release into culture medium. The series is classed as cell-based, equine herpesvirus 1. The following applies: EHV-1; qPCR / HFF; read-out: EC50.
In series [12] the test system is Caco-2 cells.
The subject of series [13] is SARS-CoV-2 d6-YFP.
Series [14] has as its system ChCMV. Set-up: method as in ref 35, 38 (a number printed in a supplementary file, which may have a reference list of its own: not looked up in the article's list). The following applies: Table S1; read-out: antiviral EC50, ChCMV; cited from earlier work.
Series [15] deals with MHV-68-Luc. The experiment in a line: MHV-68-Luc luciferase reporter assay. The series is classed as cell-based, murine herpesvirus 68.
Series [16] deals with HHV-6A-GFP. The experiment in a line: HHV-6A plaque reduction assay in HFFs. For orientation: In a plaque reduction assay, fewer plaques than in the control indicate reduced infectivity or spread.
The test system of series [17] is HSV-1. The arrangement: method as in ref 35, 38 (a number printed in a supplementary file, which may have a reference list of its own: not looked up in the article's list). As to conditions: Table S1; read-out: antiviral EC50, HSV-1; cited from earlier work.
Series [18] relates to MEFs.
Series [19] has as its system EHV-1-GFP. The experiment in a line: EHV-1-GFP antiviral assay, GFP fluorometry. It is filed as cell-based, equine herpesvirus 1.
In series [20] the test system is HCMV. Set-up: method as in ref 35, 38 (a number printed in a supplementary file, which may have a reference list of its own: not looked up in the article's list). The following applies: Table S1; read-out: antiviral EC50, HCMV; cited from earlier work.
The subject of series [21] is MCMV. Set-up: method as in ref 35, 38 (a number printed in a supplementary file, which may have a reference list of its own: not looked up in the article's list). As to conditions: Table S1; read-out: antiviral EC50, MCMV; cited from earlier work.
The subject of series [22] is RCMV. The arrangement: method as in ref 35, 38 (a number printed in a supplementary file, which may have a reference list of its own: not looked up in the article's list). The following applies: Table S1; read-out: antiviral EC50, RCMV; cited from earlier work.
Series [23] relates to HCMV AD169-GFP. The experiment in a line: HCMV time-of-addition reporter assay in HFFs, AD169-GFP.
Series [24] has as its system 293T-tdTom-Luc cells.
For series [25], the system named is RhCMV. The arrangement: method as in ref 35, 38 (a number printed in a supplementary file, which may have a reference list of its own: not looked up in the article's list). As to conditions: Table S1; read-out: antiviral EC50, RhCMV; cited from earlier work.
Series [26] relates to HCMV TB40-YFP. The experiment in a line: HCMV time-of-addition reporter assay in HFFs, TB40-YFP.
Series [27] has as its system Epstein–Barr virus P3HR-1. The experiment in a line: EBV lytic assay in TPA-induced P3HR-1 cells, qPCR. The series is classed as cell-based.
Series [28] is described as follows: in vitro. The following applies: African green monkey.
Series [29] in a line: in vitro. The following applies: human.
The nature of series [30]: in vitro. As to conditions: African green monkey. The source holds these as a separate data set.
Series [31] in a line: in vitro. The following applies: mouse.
A short description of series [32]: Neutral Red uptake cell viability assay, P3HR-1. The following applies: human.

Read-outs that look alike come from different tables or passages of the source.

Usually EC50 stands for the midpoint of the concentration-response curve. As to `Cn1ncc2cc(-c3cnc(N)c(Cl)c3N3CCC4(CCNC4=O)CC3)ccc21` [CCT-251921], the concentration giving a half-maximal response (EC50) in series [1] is 28000 ± 9000 nM; in series [2], 39000 ± 21000 nM; in series [4] (read-out: Merlin-GFP EC50, drug addition 0 d p.i., readout 7 d p.i.), 0.7 ± 1.3 nM; in series [4] (read-out: Merlin-GFP EC50, drug addition 1 d p.i., readout 7 d p.i.), 13 ± 8 nM; in series [4] (read-out: Merlin-GFP EC50, drug addition 2 d p.i., readout 7 d p.i.), 3.4 ± 6.8 nM; in series [4] (read-out: Merlin-GFP EC50, drug addition 4 d p.i., readout 7 d p.i.) it was 5.9 ± 4.9 nM. For the same compound, the concentration for a half-maximal effect (EC50) in series [5] is 50 ± 80 nM; in series [6], 30 ± 30 nM; in series [7], 3700 ± 3000 nM; in series [9], greater than 50000 nM; in [10], 300 nM; in series [11], 800 nM. In addition, the EC50 is no less than 15400 nM in series [13] (read-out: Antiviral mean EC50 based on YFP measurements, SARS-CoV-2 d6-YFP, Caco-2, […]); 62400 ± 18500 nM in [13] (read-out: antiviral EC50, SARS-CoV-2, Table S1); 30 ± 20 nM in series [14]; 0.5 ± 0.9 nM in [15] (Table S1, COS-7, read-out: antiviral EC50, MHV-68 (COS-7)); 500 ± 300 nM in series [15] (Table S1, HFF, read-out: antiviral EC50, MHV-68 (HFF)); 10 ± 9 nM in series [15] (Table S1, MEF, read-out: antiviral EC50, MHV-68 (MEF)). In addition, the EC50 in series [15] (Table S1, Vero, read-out: antiviral EC50, MHV-68 (Vero)) is 2 ± 1 nM; in series [16] (read-out: antiviral EC50, HHV-6A (HFF), Table S1, HFF), 40 ± 20 nM; in series [17], greater than 50000 nM; in [19] (EHV-1, GFP / COS-7, read-out: EC50) it was 100 nM; in series [20], 4 ± 2 nM; in series [21], greater than 40 nM. The EC50 in series [22] was 20 ± 50 nM; in series [23] (read-out: AD169-GFP EC50, drug addition 0 d p.i., readout 7 d p.i.), 0.7 ± 0.7 nM; in series [23] (read-out: AD169-GFP EC50, drug addition 1 d p.i., readout 7 d p.i.), 3.2 ± 2.6 nM; in [23] (read-out: AD169-GFP EC50, drug addition 2 d p.i., readout 7 d p.i.), 8.3 ± 7.9 nM; in series [23] (read-out: AD169-GFP EC50, drug addition 3 d p.i., readout 7 d p.i.), greater than 50 nM; in series [23] (read-out: AD169-GFP EC50, drug addition 4 d p.i., readout 7 d p.i.), greater than 50 nM. Besides, the half-maximal effective concentration (EC50) in [25] is 3 ± 2 nM; in [26] (read-out: TB40-YFP EC50, drug addition 0 d p.i., readout 7 d p.i.), 8.7 ± 5 nM; in series [26] (read-out: TB40-YFP EC50, drug addition 1 d p.i., readout 7 d p.i.) it was 26 ± 4 nM; in series [26] (read-out: TB40-YFP EC50, drug addition 2 d p.i., readout 7 d p.i.), greater than 50 nM; in [26] (read-out: TB40-YFP EC50, drug addition 3 d p.i., readout 7 d p.i.) it was greater than 50 nM; in [26] (read-out: TB40-YFP EC50, drug addition 4 d p.i., readout 7 d p.i.), greater than 50 nM. In addition, the EC50 in [27] (Table S1, read-out: antiviral EC50, EBV) was determined as 2500 ± 1000 nM. Also, the CC50 was greater than 100000 nM in series [3]; greater than 100000 nM in [8]; greater than 100000 nM in [12]; greater than 100000 nM in series [18]; 95300 ± 6600 nM in [24]. In series [13] (in words), the “CDK8 inhibitor sensitivity of SARS-CoV-2 in Caco-2 cells” value is listed as “lack of CDK8 inhibitor sensitivity”.
In the case of `Nc1nc(O)c2ncn(COC(CO)CO)c2n1` [GCV, ganciclovir], the CC50 at 4 d in [28] was greater than 100000 nM. Besides, the 50% effective concentration (EC50) in series [15] (Murine herpesvirus, MHV-68-Luc, HFF) was greater than 50000 nM; in series [15] (Murine herpesvirus, MHV-68-Luc, MEF), 9400 ± 6300 nM; in [15] (Murine herpesvirus, Vero, MHV-68-Luc), 900 ± 700 nM; in [16] (Human betaherpesvirus 6A, read-out: Antiviral mean EC50 based on plaque assay measurements), 2500 ± 600 nM; in [19], 1300 ± 300 nM; in series [19] (COS-7), 200 ± 100 nM. In series [19] (Equus caballus, Vero), the response was half-maximal at 40 ± 50 nM (EC50). Moreover, the CC50 in series [29] (CC50) was greater than 50000 nM; in series [29] (mean CC50) it was greater than 100000 nM. Also, the CC50 at 7 d in [30] and in [31] was greater than 100000 nM each time.
In turn, `CC(C)OC(=O)[C@H](C)N[P@](=O)(CO[C@H](C)Cn1cnc2c(N)ncnc21)Oc1ccccc1` [TAF, tenofovir alafenamide] yielded a CC50 at 10 d in series [32] greater than 100000 nM. The 50% effective concentration (EC50) in series [27] (human gammaherpesvirus 4, P3HR-1, 240 h, read-out: Antiviral mean EC50 based on qPCR measurements) is 1800 nM.
